# Results as given in ChEMBL document CHEMBL5107958, “Phosphoramidate Prodrugs Continue to Deliver, The Journey of Remdesivir (GS-5734) from RSV to SARS-CoV-2” (ACS Med Chem Lett, 2022).
# Key:
# SARS-CoV-2 [1] = experiment: Potency index, ratio of EC50 of GS-441524 to EC50 of test compound for antiviral activity against SARS-CoV-2 infected in human Calu-3 cells assessed as reduction in viral replication at MOI of 0.01 measured after 72 hrs by qRT-PCR analysis; format: functional, Severe acute respiratory syndrome coronavirus 2
# Nipah virus [2] = experiment: Antiviral activity against Nipah B2004 infected in human NCI-H358 cells assessed as reduction in viral replication incubated for 48 to 144 hrs by reporter virus assay; format: functional, organism-based; details: Henipavirus nipahense
# [3] = system: Middle East respiratory syndrome-related coronavirus; experiment: Potency index, ratio of EC50 of GS-441524 to EC50 of test compound for antiviral activity against MERS-CoV infected in HAE cells assessed as reduction in viral replication at MOI of 0.5 incubated for 3 hrs followed by virus removal measured after 48 hrs by Hoechst 33258 staining based assay; format: functional; details: time 51 hrs
# [4] = Half life in human at 2.5 mg/kg, iv; format: ADME, organism-based; details: in vivo
# [5] = Half life in ferret at 10 mg/kg, iv; format: ADME, organism-based, Mustela putorius furo; details: in vivo
# Ebolavirus [6] = experiment: Antiviral activity against Ebola infected in human HeLa cells assessed as reduction in viral replication; format: functional, organism-based; details: Orthoebolavirus
# SARS-CoV-2 [7] = experiment: Potency index, ratio of EC50 of GS-441524 to EC50 of test compound for antiviral activity against SARS-CoV-2 infected in human PSC-derived lung epithelial cells assessed as reduction in viral replication; format: functional, Severe acute respiratory syndrome coronavirus 2, PSC-derived lung epithelial cell
# Marburgvirus = experiment: Antiviral activity against MARV Rec. Bat371-GFP infected in human Huh-7 cells assessed as reduction in viral replication incubated for 48 to 144 hrs by fluorescence based assay; format: functional, organism-based; details: Orthomarburgvirus
# Measles morbillivirus [8] = experiment: Potency index, ratio of EC50 of GS-441524 to EC50 of test compound for antiviral activity against Measles virus infected in HMVEC cells assessed as reduction in viral replication; format: functional
# Nipah virus [9] = experiment: Antiviral activity against Nipah M1999 infected in human HeLa cells assessed as reduction in viral replication incubated for 48 to 144 hrs by reporter virus assay; format: functional, organism-based; details: Henipavirus nipahense
# [10] = Volume of distribution at steady state in ferret at 10 mg/kg, iv; format: ADME, organism-based, Mustela putorius furo; details: in vivo, read-out: Vdss
# Ebolavirus [11] = experiment: Antiviral activity against Ebola infected in human macrophages assessed as reduction in viral replication; format: functional, organism-based; details: Orthoebolavirus, Macrophage
# [12] = system: Middle East respiratory syndrome-related coronavirus; experiment: Antiviral activity against MERS-CoV infected in human Calu-3 2B4 cells assessed as reduction in viral replication at MOI of 0.08 infected for 1 hr followed by virus removal and subsequent addition of medium containing compound measured after 48 hrs post-infection by nLUC assay; format: functional, organism-based
# Ebolavirus [13] = experiment: Potency index, ratio of EC50 of GS-441524 to EC50 of test compound for antiviral activity against Ebola infected in human macrophages assessed as reduction in viral replication; format: functional, Macrophage
# SARS-CoV-2 [14] = experiment: Antiviral activity against SARS-CoV-2 infected in African green monkey Vero E6 cells assessed as reduction in viral replication; format: functional, organism-based; details: Severe acute respiratory syndrome coronavirus 2, Vero C1008
# [15] = Half life in Rhesus monkey at 10 mg/kg, iv; format: ADME, organism-based, Macaca mulatta; details: in vivo
# [16] = Prodrug conversion in human macrophages assessed as half life of triphosphate metabolite; format: ADME, cell-based; details: macrophage
# SARS-CoV = experiment: Potency index, ratio of EC50 of GS-441524 to EC50 of test compound for antiviral activity against SARS-CoV infected in HAE cells assessed as reduction in viral replication at MOI of 0.5 preincubated for 3 hrs followed by virus removal measured after 48 hrs by Hoechst 33258 staining based assay; format: functional, Severe acute respiratory syndrome-related coronavirus; details: time 51 hrs
# [17] = Prodrug conversion in human assessed as AUC (0 to last) of parent nucleoside compound at 2.5 mg/kg, iv; format: ADME, organism-based; set-up: time 0 - last, dose 2.5 mg/kg, route iv; details: in vivo
# SARS-CoV-2 [18] = experiment: Potency index, ratio of EC50 of GS-441524 to EC50 of test compound for antiviral activity against SARS-CoV-2 infected in African green monkey Vero E6 cells assessed as reduction in viral replication; format: functional, Severe acute respiratory syndrome coronavirus 2
# SARS-CoV-2 [19] = experiment: Antiviral activity against SARS-CoV-2 infected in human Huh-7 cells assessed as reduction in virus-induced cytopathic effect at MOI of 0.0037 measured after 4 days by MTS assay; format: functional, organism-based; details: Severe acute respiratory syndrome coronavirus 2, Huh-7, 96 h
# Nipah virus [20] = experiment: Potency index, ratio of EC50 of GS-441524 to EC50 of test compound for antiviral activity against Nipah B2004 infected in human NCI-H358 cells assessed as reduction in viral replication incubated for 48 to 144 hrs by reporter virus assay; format: functional, Henipavirus nipahense; details: time 48-144 hrs
# [21] = Prodrug conversion in Normal human bronchial epithelial cells assessed as half life of triphosphate metabolite; format: ADME, cell-based; details: normal human bronchial epithelial cell
# SARS-CoV-2 [22] = experiment: Antiviral activity against SARS-CoV-2 infected in human Calu-3 2B4 cells assessed as reduction in viral replication at MOI of 0.01 preincubated for 2 hrs followed by viral infection for 30 mins and subsequent virus removal and addition of medium containing compound measured after 72 hrs by RT-qPCR analysis; format: functional, organism-based; details: Severe acute respiratory syndrome coronavirus 2, Calu-3 2B4
# Measles morbillivirus [23] = experiment: Potency index, ratio of EC50 of GS-441524 to EC50 of test compound for antiviral activity against Measles Rec.rMVEZGFP(3) infected in human HeLa cells assessed as reduction in viral replication incubated for 48 to 144 hrs by fluorescence based assay; format: functional; details: time 48-144 hrs
# SARS-CoV-2 [24] = experiment: Antiviral activity against SARS-CoV-2 infected in HAE cells assessed as reduction in viral replication at MOI of 0.5 incubated for 2 hrs followed by virus removal measured after 48 hrs by plaque assay; format: functional, organism-based; details: Severe acute respiratory syndrome coronavirus 2, HAE
# SARS-CoV-2 [25] = experiment: Antiviral activity against SARS-CoV-2 infected in human Caco-2 cells assessed as reduction in viral replication at MOI of 0.01 measured after 72 hrs by qRT-PCR analysis; format: functional, organism-based; details: Severe acute respiratory syndrome coronavirus 2, Caco-2, 72 h
# SARS-CoV-2 [26] = experiment: Potency index, ratio of EC50 of GS-441524 to EC50 of test compound for antiviral activity against SARS-CoV-2 infected in human A549 cells expressing hACE2 assessed as reduction in viral replication at MOI of 0.025 incubated for 48 hrs by luciferase based assay; format: functional, Severe acute respiratory syndrome coronavirus 2
# SARS-CoV-2 [27] = experiment: Potency index, ratio of EC50 of GS-441524 to EC50 of test compound for antiviral activity against SARS-CoV-2 infected in human Caco-2 cells assessed as reduction in viral replication at MOI of 0.01 measured after 72 hrs by qRT-PCR analysis; format: functional, Severe acute respiratory syndrome coronavirus 2
# Nipah virus [28] = experiment: Potency index, ratio of EC50 of GS-441524 to EC50 of test compound for antiviral activity against Nipah M1999 infected in human HeLa cells assessed as reduction in viral replication incubated for 48 to 144 hrs by reporter virus assay; format: functional, Henipavirus nipahense; details: time 48-144 hrs
# SARS-CoV-2 [29] = experiment: Antiviral activity against SARS-CoV-2 infected in human PSC-derived lung epithelial cells assessed as reduction in viral replication; format: functional, organism-based; details: Severe acute respiratory syndrome coronavirus 2, Epithelial cell
# SARS-CoV-2 [30] = experiment: Potency index, ratio of EC50 of GS-441524 to EC50 of test compound for antiviral activity against SARS-CoV-2 infected in human Huh-7 cells assessed as reduction in virus-induced cytopathic effect at MOI of 0.0037 measured after 4 days by MTS assay; format: functional, Severe acute respiratory syndrome coronavirus 2; details: time 4 day
# [31] = Clearance in human at 2.5 mg/kg, iv; format: ADME, organism-based; details: in vivo
structure (smiles),measurement,setting,value
CCC(CC)OC(=O)[C@H](C)N[P@](=O)(OC[C@H]1O[C@@](C#N)(c2ccc3c(N)ncnn23)[C@H](O)[C@@H]1O)Oc1ccccc1,Ratio,SARS-CoV-2 [1],2.4
same,EC50,Nipah virus [2],0.032 µM
same,Ratio,[3],12
same,half-life,[4],60 min
same,half-life,[5],11 min
same,EC50,Ebolavirus [6],0.14 µM
same,Ratio,SARS-CoV-2 [7],5.3
same,EC50,Marburgvirus,0.014 µM
same,Ratio,Measles morbillivirus [8],13
same,EC50,Nipah virus [9],0.066 µM
same,Vd,[10],0.34 L/kg
same,EC50,Ebolavirus [11],0.086 µM
same,EC50,[12],0.069 µM
same,Ratio,Ebolavirus [13],>232
same,EC50,SARS-CoV-2 [14],0.74 µM
same,half-life,[15],23 min
same,t1/2,[16],840 min
same,Ratio,SARS-CoV,2.6
same,AUClast,[17],7.5 µM·h
same,Ratio,SARS-CoV-2 [18],0.7
same,EC50,SARS-CoV-2 [19],< 0.001 µM
same,Ratio,Nipah virus [20],77
same,t1/2,[21],840 min
same,EC50,SARS-CoV-2 [22],0.28 µM
same,Ratio,Measles morbillivirus [23],27
same,EC50,SARS-CoV-2 [24],0.01 µM
same,EC50,SARS-CoV-2 [25],0.001 µM
same,Ratio,SARS-CoV-2 [26],7.6
same,Ratio,SARS-CoV-2 [27],80
same,Ratio,Nipah virus [28],32
same,EC50,SARS-CoV-2 [29],0.14 µM
same,Ratio,SARS-CoV-2 [30],>1000
same,clearance,[31],14.3 mL/min/kg
